The target of the assay is T1, NaV1.3 (Rattus norvegicus, UniProt P08104).
T1 construct: gene Scn3a
In words: manual whole-cell patch-clamp of endogenous INa in GH3b6 cells. In kind it is cell-based. As to conditions: read-out: % reduction of INa amplitude at 1 μM.

SMILES strings stand for the structures.

T1 sequence (P08104 whole entry): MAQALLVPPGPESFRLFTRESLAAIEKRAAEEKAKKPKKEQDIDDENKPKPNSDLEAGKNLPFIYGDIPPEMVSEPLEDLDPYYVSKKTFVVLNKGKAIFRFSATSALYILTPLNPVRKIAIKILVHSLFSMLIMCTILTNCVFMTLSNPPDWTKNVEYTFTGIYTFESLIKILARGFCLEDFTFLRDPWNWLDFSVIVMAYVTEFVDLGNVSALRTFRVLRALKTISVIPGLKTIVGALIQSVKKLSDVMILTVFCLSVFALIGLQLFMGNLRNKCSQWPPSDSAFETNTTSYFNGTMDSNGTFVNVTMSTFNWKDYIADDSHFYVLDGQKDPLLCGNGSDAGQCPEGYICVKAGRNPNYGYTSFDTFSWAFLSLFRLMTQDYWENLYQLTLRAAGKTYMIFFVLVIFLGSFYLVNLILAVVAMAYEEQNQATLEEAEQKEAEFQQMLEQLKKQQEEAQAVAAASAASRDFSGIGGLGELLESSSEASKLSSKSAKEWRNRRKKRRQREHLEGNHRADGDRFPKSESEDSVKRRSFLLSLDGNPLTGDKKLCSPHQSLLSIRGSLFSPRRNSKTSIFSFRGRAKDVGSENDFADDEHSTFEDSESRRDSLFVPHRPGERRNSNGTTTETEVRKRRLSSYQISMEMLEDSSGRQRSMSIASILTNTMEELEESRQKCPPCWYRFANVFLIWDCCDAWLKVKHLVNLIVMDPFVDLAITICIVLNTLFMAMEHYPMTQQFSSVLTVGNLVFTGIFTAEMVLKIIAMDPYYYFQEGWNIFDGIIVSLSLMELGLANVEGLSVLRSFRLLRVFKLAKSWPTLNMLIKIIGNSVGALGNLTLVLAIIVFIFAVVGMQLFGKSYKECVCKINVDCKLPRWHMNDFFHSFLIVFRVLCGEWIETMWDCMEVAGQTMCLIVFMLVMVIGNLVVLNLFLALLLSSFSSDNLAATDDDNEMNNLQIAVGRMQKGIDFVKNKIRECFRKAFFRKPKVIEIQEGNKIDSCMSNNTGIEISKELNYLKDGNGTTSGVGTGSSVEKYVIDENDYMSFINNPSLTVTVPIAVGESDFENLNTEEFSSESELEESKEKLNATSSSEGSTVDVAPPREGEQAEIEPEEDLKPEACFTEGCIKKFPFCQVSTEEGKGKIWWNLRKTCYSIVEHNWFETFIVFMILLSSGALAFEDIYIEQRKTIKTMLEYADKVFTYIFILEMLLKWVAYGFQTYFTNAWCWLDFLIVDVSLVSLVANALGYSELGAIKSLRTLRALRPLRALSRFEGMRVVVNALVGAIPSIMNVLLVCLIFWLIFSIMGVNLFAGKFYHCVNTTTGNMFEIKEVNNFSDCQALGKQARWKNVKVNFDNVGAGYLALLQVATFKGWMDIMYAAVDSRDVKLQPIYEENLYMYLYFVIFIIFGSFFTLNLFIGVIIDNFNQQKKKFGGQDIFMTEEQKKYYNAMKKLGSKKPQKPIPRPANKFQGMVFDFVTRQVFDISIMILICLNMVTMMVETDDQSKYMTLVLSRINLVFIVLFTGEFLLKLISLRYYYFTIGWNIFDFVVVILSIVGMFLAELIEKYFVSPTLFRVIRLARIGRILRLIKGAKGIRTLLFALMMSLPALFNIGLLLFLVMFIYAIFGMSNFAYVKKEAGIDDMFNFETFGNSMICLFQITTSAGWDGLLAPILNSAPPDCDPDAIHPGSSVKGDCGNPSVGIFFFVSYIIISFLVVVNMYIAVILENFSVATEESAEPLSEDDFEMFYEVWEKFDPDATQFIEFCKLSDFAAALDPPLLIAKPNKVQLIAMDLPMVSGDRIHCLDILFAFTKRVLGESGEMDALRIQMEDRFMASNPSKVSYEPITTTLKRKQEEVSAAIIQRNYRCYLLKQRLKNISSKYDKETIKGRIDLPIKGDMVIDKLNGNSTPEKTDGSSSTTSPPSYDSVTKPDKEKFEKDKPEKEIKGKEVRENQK

Take `O=C(Nc1ccc(S(=O)(=O)Nc2nccs2)cc1)C(c1ccccc1)c1ccccc1` [ICA-121431]: the inhibition at 1 µM is 50%.
